Columns and labels:
[1] = Experimental log P octanol/water by UV-Vis spectroscopy assay; conditions: octanol/water (1:1), pH 7
Experimental: (§1) In order to validate a prediction model, the experimental and theoretical log P of five anthraquinones were assessed. Theoretical values were determined using Chemicalize's online software from ChemAxon, and experimental values were determined by UV-Vis spectroscopy assay using the protocol below.
(§2) A 1:1 mixture of octanol and water (pH=7) was prepared 24 hours before the assay in a reparatory funnel. A precise amount of the product was then added, and sonicated until complete dissolution. The phases were then vigorously stirred and left for 6 hours. The two phases were then separated, the organic phase diluted and analysed by UV spectrophotometry using a calibration curve previously carried out. The aqueous phase was acidified and evaporated. The residue was dissolved in octanol for analysis in UV-Vis spectrophotometry with the same method.

[2] = UV-Visible analysis in methanol; type: physicochemical; conditions: for Colour: methanol solution; for log ε / λmax visible / L1/2: methanol; for log ε: log of average molar extinction coefficient, characterizes the strength of the colour; for λmax visible: maximum absorption in visible spectra 400-800 nm, 1 cm quartz cuvette, characterizes the colour; for L1/2: width measured at A/2, characterizes the brilliance of the colour
Experimental: UV-Visible analysis was carried on a Genesys10 UV photometer and recorded with the help of “VisionLite Scan” software. For each molecule, a certain amount was weighed with a precision balance and fully dissolved (under sonication if necessary) in methanol to obtain a mother solution at 1 mg/mL. Serial dilutions were performed to obtain samples in a range from 0.0025 mg/mL to 0.5 mg/mL. Samples were analyzed from 190 to 800 nm in a 1 cm quartz cuvette. For each concentration, the wavelength of maximum absorption in the visible spectra (400-800 nm) was recorded with a precision of 2 nm, and the width was measured at A/2. Additionally, molar extinction coefficient ε was calculated for each sample and the log of the average value presented. λmax visible characterizes the colour, L1/2 characterizes the brilliance of the colour, ε characterizes the strength of the colour.

[3] = pH 7
Experimental: as §1, §2

O=C1c2cccc(O)c2C(=O)c2c(O)cccc21 [1,8-dihydroxy anthraquinone]
logP at 6 h [1]: 3.4

O=C1c2ccccc2C(=O)c2c1ccc(O)c2O [Alizarin]
logP at 6 h [1]: 2.8

Cc1cc(O)c2c(c1)C(=O)c1cccc(O)c1C2=O [Chrysophanic acid]
logP at 6 h [1]: 4

Cc1cc(O)cc2c1C(=O)c1c(O)cccc1C2=O [Compound 5, 3,8-dihydroxy-1-methyl-anthracene-9,10-dione, reference compound]
Colour [2]: Yellow
log ε [2]: 3.5
λmax visible [2]: 408 nm
L1/2 [2]: 94 nm
logP at 6 h [1]: 3.2

COc1cc(C)c2c(c1)C(=O)c1cccc(O)c1C2=O [Compound 6, 8-hydroxy-3-methoxy-1-methyl-anthracene-9,10-dione, reference compound]
Colour [2]: Stronger yellow
log ε [2]: 3.62
λmax visible [2]: 406 nm
L1/2 [2]: 81 nm

Cc1c(C(=O)O)c(O)cc2c1C(=O)c1c(O)cccc1C2=O [Compound 7, 3,8-dihydroxy-1-methyl-9,10-dioxo-anthracene-2-carboxylic acid, reference compound]
Colour [2]: Yellow
log ε [2]: 3.9
λmax visible [2]: 408 nm
L1/2 [2]: 86 nm

Cc1cc(N)cc2c1C(=O)c1c(O)cccc1C2=O [Compound 8, 3-amino-8-hydroxy-1-methyl-anthracene-9,10-dione]
Colour [2]: Orange
log ε [2]: 2.44
λmax visible [2]: 452 nm
L1/2 [2]: 142 nm

Cc1cc(Nc2ccccc2)cc2c1C(=O)c1c(O)cccc1C2=O [Compound 9, 3-anilino-8-hydroxy-1-methyl-anthracene-9,10-dione]
Colour [2]: “Carmine-like” red
log ε [2]: 2.25
λmax visible [2]: 480 nm
L1/2 [2]: 104 nm

Cc1cc(Nc2ccccc2)cc2c1C(=O)c1c(Nc3ccccc3)cccc1C2=O [Compound 10, 3,8-dianilino-1-methyl-anthracene-9,10-dione]
Colour [2]: Purple/red purplish
log ε [2]: 2.72
λmax visible [2]: 496 nm
L1/2 [2]: 152 nm

CC(=O)Nc1cccc(Nc2cc(C)c3c(c2)C(=O)c2cccc(Nc4cccc(NC(C)=O)c4)c2C3=O)c1 [Compound 11, N-(3-((6-(3-acetamidoanilino)-8-methyl-9,10-dioxo-1-anthryl)amino)phenyl) Acetamide]
Colour [2]: Purple
log ε [2]: 2.8
λmax visible [2]: 510 nm
L1/2 [2]: 128 nm

Cc1cc(NC2CCCCC2)cc2c1C(=O)c1c(NC3CCCCC3)cccc1C2=O [Compound 12, 3,8-bis(cyclohexylamino)-1-methyl-anthracene-9,10-dione]
Colour [2]: Purple
log ε [2]: 2.46
λmax visible [2]: 524 nm
L1/2 [2]: 94 nm

Cc1ccc(S(=O)(=O)Oc2cccc3c2C(=O)c2c(C)cc(Nc4ccccc4)cc2C3=O)cc1 [Compound 14, (6-anilino-8-methyl-9,10-dioxo-1-anthryl)-4-methylbenzenesulfonate]
Colour [2]: Red-purple
log ε [2]: 3.12
λmax visible [2]: 508 nm
L1/2 [2]: 104 nm

Cc1cc(O)c(N)c2c1C(=O)c1c(O)cccc1C2=O [Compound 17b, 1-amino-2,5-dihydroxy-4-methyl-anthracene-9,10-dione]
Colour [2]: Purple
log ε [2]: 3.41
λmax visible [2]: 498 nm
L1/2 [2]: 100 nm

Cc1c(C(=O)O)c(O)c(N)c2c1C(=O)c1c(O)ccc(N)c1C2=O [Compound 19b, 4,5-diamino-3,8-dihydroxy-1-methyl-9,10-dioxo-anthracene-2-carboxylic acid]
Colour [2]: Purple
log ε [2]: 3.25
λmax visible [2]: 518 nm
L1/2 [2]: 106 nm

Quinizarin
Measured logP [3]: 3.7
